Tests used:
[1] = test system: High-generation MSCs (Old MSCs); test: CCK8 assay, proliferation of high-generation mesenchymal stem cells; assay type: cell-based; details: P10-15 MSCs; 50 μM, 100 μM, and 200 μM QCA in the medium
Method: (§1) 4. High-generation MSCs (Old MSCs) at P10-15 were plated in a 96 plate, and 50 μM, 100 μM, and 200 μM of QCA were added to the medium, respectively. The medium without adding QCA was used as a control. Low-generation MSCs (Young MSCs) at P4-7, high-generation MSCs (Old MSCs) at P10-15, as well as high-generation MSCs respectively treated with 50 μM and 200 μM QCA for 72 h, were subjected to Ki67 immunofluorescence staining, and the results were shown in FIG. 4B.

[2] = test system: High-generation MSCs (Old MSCs); test: Ki67 immunofluorescence staining of high-generation mesenchymal stem cells; assay type: cell-based; details: P10-15 MSCs; 50 μM and 200 μM QCA for 72 h
Method: as §1

[3] = test system: High-generation MSCs (Old MSCs); test: TUNEL staining of high-generation mesenchymal stem cells; assay type: cell-based; details: P10-15 MSCs; 50 μM and 200 μM QCA for 72 h
Method: (§2) 5. Low-generation MSCs (Young MSCs) at P4-7, high-generation MSCs (Old MSCs) at P10-15, as well as old MSCs respectively treated with 50 μM and 200 μM QCA for 72 h were subjected to TUNEL staining, and the results were shown in FIG. 5A. Old MSCs with 50 μM QCA were added to the medium all the time (a fresh medium containing QCA was changed every 2-3 days), and the medium without adding QCA was used as a control. The cells were passaged for 3 consecutive generations (passaged when the cells were 80-90% confluent) before being used for β-Gal staining tests, and the results were shown in FIG. 5B.

[4] = test system: High-generation MSCs (Old MSCs); test: β-Gal staining of high-generation mesenchymal stem cells; assay type: cell-based; details: 50 μM QCA all the time, passaged for 3 consecutive generations
Method: as §2

W1118 fruit flies = test: lifespan test for fruit flies (survival curves); assay type: in vivo; details: male W1118; 115 μL of QCA (100 mM, 2 mg QCA/tube) in medium; days 20-30 and 40-50
Method: (6) The regular medium for rearing fruit flies was added with a preservative and dispensed. After which, 115 μL of QCA (100 mM, equivalent to 2 mg QCA/tube) was added dropwise to the medium, and the same volume of 95% ethanol was added to the control tube. On days 20-30 and 40-50 of fruit flies rearing, the tubes were replaced with QCA-containing rearing tubes for rearing. 3 male W1118 fruit flies and 3 virgin W1118 fruit flies were added to each rearing tube and bred for 3-5 days for a total of 20 tubes. The parental fruit flies were cleared after about 5-6 days, and then adult occurred in about 10 days. A round of picking male fruit flies within 1 day after emergence was performed at a fixed time point each day for a total of 400 fruit flies, in which 20 fruit flies were placed in each tube labeled with the name, date, and number for a total of 20 tubes. Fruit flies were reared at 25° C., 50% humidity and 12 h light/12 h dark, the number of dead fruit flies in the tubes was counted and recorded every day, and the rearing tubes were changed every 3-4 days. The lifespan test for fruit flies in each group needed to be repeated three times independently and the recordings were entered into statistical software for analysis.

fruit flies = test: tube-climbing test of fruit flies; assay type: in vivo; details: 20 male fruit flies; 17.5 cm marker; performance at 120 s
[5] = test system: 21 month-old C57BL6/J mice; test: observation of coat status and dermatitis in old mice; assay type: in vivo; details: 5 mg/kg QCA by consecutive gavage for 4 months
Method: (§3) (7) 21 month-old C57BL6/J mice were randomly divided into control and QCA groups. 0.9% saline was given to the control group (n=7 for male mice, and n=12 for female mice); and 5 mg/kg QCA was given to the QCA group (n=9 for male mice, and n=13 for female mice) by consecutive gavage for 4 months. […] The test mice were placed on the grip strength meter and the tail of the mice was gently pulled, so that the mice grasped the probe forcefully with the forelimbs and hindlimbs. The readings on the grip strength meter were recorded when the mice exerted the maximum force, the arm strength value in mice were obtained by averaging 3 repetitions of the measurements, and the results were shown in FIG. 7B. Blood was taken from the tail vein of mice 4 months after administration by gavage, the proportion of neutrophils (NEU) was measured by routine blood test, and the results were shown in FIG. 7C. […] The mice were examined periodically for the presence of spontaneous tumors, and the number of mice with spontaneous tumors in each group was recorded. […] Concentrations of alanine aminotransferase (ALT), aspartate aminotransferase (AST), and lactate dehydrogenase (LDH) in plasma were measured using a HITACHI 7600 Series (Japan) biochemical detector, and the results were shown in FIG. 7F. […]

[6] = test system: 21 month-old C57BL6/J mice; test: grip strength meter, arm strength of old mice; assay type: in vivo; details: 5 mg/kg QCA by consecutive gavage for 4 months
Method: as §3

[7] = test system: 21 month-old C57BL6/J mice; test: chronic inflammation in old mice (proportion of neutrophils by routine blood test, serum TNF-α by ELISA); assay type: in vivo; details: 5 mg/kg QCA by consecutive gavage for 4 months
Method: as §3

[8] = test system: 21 month-old C57BL6/J mice; test: plasma ALT, AST and LDH in old mice; assay type: in vivo; details: aged mice, 5 mg/kg QCA by consecutive gavage for 4 months
Method: as §3

[9] = test system: 21 month-old C57BL6/J mice; test: survival curves of old mice; assay type: in vivo; details: 5 mg/kg QCA by gavage; Ctrl (n=19) and QCA (n=26)
Method: (7) 21 month-old C57BL6/J mice were randomly divided into control and QCA groups. […] The test mice were placed on the grip strength meter and the tail of the mice was gently pulled, so that the mice grasped the probe forcefully with the forelimbs and hindlimbs. The readings on the grip strength meter were recorded when the mice exerted the maximum force, the arm strength value in mice were obtained by averaging 3 repetitions of the measurements, and the results were shown in FIG. 7B. Blood was taken from the tail vein of mice 4 months after administration by gavage, the proportion of neutrophils (NEU) was measured by routine blood test, and the results were shown in FIG. 7C. […] The mice were examined periodically for the presence of spontaneous tumors, and the number of mice with spontaneous tumors in each group was recorded. […] Concentrations of alanine aminotransferase (ALT), aspartate aminotransferase (AST), and lactate dehydrogenase (LDH) in plasma were measured using a HITACHI 7600 Series (Japan) biochemical detector, and the results were shown in FIG. 7F. Survival times were recorded to make the survival curves of the mice in the Ctrl (n=19) and QCA (n=26) groups, and the results were shown in FIG. 7G.

[10] = test system: C57BL6/J mice older than 18 months; test: ⅔ partial hepatectomy model in old mice, liver to body weight ratio; assay type: in vivo; details: 5 mg/kg QCA intraperitoneally
Method: (§4) (8) Establishment of ⅔ partial hepatectomy model in old mice (⅔PHx): C57BL6/J mice older than 18 months were anesthetized with 2% isoflurane by inhalation and underwent a median abdominal incision. The left external and median lobes of the liver were resected separately with 4-0 silk sutures, and the associated vessels and bile ducts were ligated. Mice were injected intraperitoneally with 5 mg/kg QCA or an equal volume of DMSO 2 h before ⅔PHx surgery, and 24 h, 48 h and 72 h after ⅔PHx surgery, respectively. Mice were sacrificed at 6 h, 48 h and 168 h after surgery, respectively, and liver specimens and plasma were collected. The postoperative survival time of mice was recorded and used to plot survival curves. Mice were weighed in advance and livers were weighed after liver extraction so that the liver to body weight ratio could be calculated. Concentrations of alanine aminotransferase (ALT), aspartate aminotransferase (AST), and lactate dehydrogenase (LDH) in plasma were measured using a HITACHI 7600 Series (Japan) biochemical detector. Mouse liver samples collected at specific time points were fixed in 4% paraformaldehyde overnight and then embedded in paraffin. A 3 μm-thick paraffin section was made for subsequent Ki67 immunohistochemical staining, and the specific procedure was as follows: after subjecting to antigen repairing in EDTA (pH 8.0), the sections were incubated with a primary antibody overnight at 4° C., and then incubated with a secondary antibody at 37° C. for 1 h. Sections were stained with diaminobenzidine and hematoxylin, and then visualized and imaged with an optical microscope.

[11] = test system: C57BL6/J mice older than 18 months; test: ⅔ partial hepatectomy model in old mice, plasma ALT, AST and LDH; assay type: in vivo; details: 5 mg/kg QCA intraperitoneally 2 h before and 24 h, 48 h and 72 h after ⅔PHx
Method: as §4, with “A 3 μm-thick paraffin section was made for subsequent Ki67 immunohistochemical staining, and the specific procedure was as follows: after subjecting to antigen repairing in EDTA (pH 8.0), the sections were incubated with a primary antibody overnight at 4° C., and then incubated with a secondary antibody at 37° C. for 1 h. Sections were stained with diaminobenzidine and hematoxylin, and then visualized and imaged with an optical microscope.” left out

[12] = test system: C57BL6/J mice older than 18 months; test: ⅔ partial hepatectomy model in old mice, survival; assay type: in vivo; details: 5 mg/kg QCA intraperitoneally 2 h before and 24 h, 48 h and 72 h after ⅔PHx
Method: as §4, with “A 3 μm-thick paraffin section was made for subsequent Ki67 immunohistochemical staining, and the specific procedure was as follows: after subjecting to antigen repairing in EDTA (pH 8.0), the sections were incubated with a primary antibody overnight at 4° C., and then incubated with a secondary antibody at 37° C. for 1 h. Sections were stained with diaminobenzidine and hematoxylin, and then visualized and imaged with an optical microscope.” left out

[13] = test system: C57BL6/J mice older than 18 months; test: ⅔ partial hepatectomy model in old mice, Ki67 immunohistochemical staining of liver; assay type: in vivo; details: 5 mg/kg QCA intraperitoneally 2 h before and 24 h, 48 h and 72 h after ⅔PHx
Method: as §4, with “A 3 μm-thick paraffin section was made for subsequent Ki67 immunohistochemical staining, and the specific procedure was as follows: after subjecting to antigen repairing in EDTA (pH 8.0), the sections were incubated with a primary antibody overnight at 4° C., and then incubated with a secondary antibody at 37° C. for 1 h. Sections were stained with diaminobenzidine and hematoxylin, and then visualized and imaged with an optical microscope.” left out

SMILES: O=C(O)c1ccnc2ccccc12 [quinoline-4-carboxylic acid]
- cell proliferation (CCK8 assay) [1]: can promote cell proliferation
- cell proliferation (Ki67 immunofluorescence staining) [2]: can promote cell proliferation
- nuclear DNA breakage (TUNEL staining) [3]: reduces nuclear DNA breakage
- cell aging (β-Gal staining) [4]: retards cell aging
- lifespan of fruit flies (survival curves) (W1118 fruit flies): prolongs the lifespan of fruit flies
- exercise capacity (tube-climbing test) (fruit flies): enhances their exercise capacity
- symptoms such as poor coat and dermatitis [5]: can reduce the symptoms such as poor coat and dermatitis in old mice
- arm strength (reflecting the muscle strength) [6]: enhance the arm strength
- chronic inflammation (neutrophils, TNF-α) [7]: down-regulate the chronic inflammation
- enzymatic indexes of liver injury (ALT, AST, LDH) [8]: down-regulate the chronic inflammation and enzymatic indexes of liver injury in aged mice
- lifespan of the mice (survival curves) [9]: prolong the lifespan of the mice
- regenerative liver to body weight ratio at 6 h ([10]; 6 h after hepatectomy): does not significantly increase
- regenerative liver to body weight ratio at 48 h ([10]; 48 h after hepatectomy): significantly increases
- regenerative liver to body weight ratio at 168 h ([10]; 168 h after hepatectomy): does not significantly increase
- enzymatic indexes of liver injury (ALT, AST, LDH) after hepatectomy [11]: attenuates the enzymatic indexes of liver injury
- survival rate of mice after hepatectomy [12]: improves the survival rate of mice after hepatectomy
- Ki67-positive cells of liver tissue (immunohistochemical staining) [13]: more Ki67-positive cells of liver tissue in the QCA group

From patent publication US20260315454A1, “Use of quinoline-4-carboxylic acid in the preparation of anti-aging product as well as product for protecting liver and promoting liver regeneration” (Guangzhou Riju Trade Development Co., Ltd., priority 2023, published 2026)
